SMILES strings stand for the structures. Active and inactive are the calls of the source.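 The calls were made as follows: active = EC50 no more than a set limit of log units above the highest dose; inactive = the rest.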 A value given as a limit tells only on which side of the number the result lay.

A word on the EC50: it is the concentration that produces a half-maximal response.

In the test the target is S. pyogenes SKKanGAS, kanamycin survival, BacTiterGlo, 6 h. The test can be described thus: SKKanGAS survival reduction under kanamycin, dose response, streptokinase promoter inhibitor project, SKKanGAS strain, luminescence, dose confirmation (AID 1902).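 Also: lower survival reflects blocked streptokinase promoter driving kanamycin resistance gene.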
Regarding `CCc1cccc2c(C(=O)COC(=O)/C=C/c3ccc(O)c(OC)c3)c[nH]c12`, the EC50 was 7.63 µM.

As to `COc1ccc2oc(=O)c(-c3csc(Nc4ccc(O)cc4)n3)cc2c1`, the half-maximal effective concentration (EC50) is 2.16 µM. Take `CC(=O)Oc1ccc(/C=N/NS(=O)(=O)c2ccccc2)cc1`: the EC50 is > 15 µM (inactive). For `COc1c(CC=C(C)C)cc(C2CC(=O)c3c(O)cc(O)cc3O2)c(CC=C(C)C)c1O` (stereo not given) the value was 1.87 µM; for `Oc1ccc(N=Nc2ccc3c(c2)OCCO3)c2ncccc12`, 0.419 µM.

As for `CCCCCCOC(=O)/C=C/c1c(C)[nH]c(=O)[nH]c1=O`, the EC50 is 0.475 µM. Consider `CCOc1ccc(/C=N/NC(=S)NC2CC3C=CC2C3)cc1` (stereo not given), for which the EC50 was > 15 µM (inactive). In the case of `O=C(N/N=C/c1cc([N+](=O)[O-])ccc1O)c1cccc(N2CCCC2=O)c1`, the EC50 is 1.21 µM. The same measure for `O=C(NNC(=S)NC(=O)c1ccccc1)c1ccc([N+](=O)[O-])cc1`: 3.23 µM.

Consider `COC(=O)c1cc(-c2cccc(OC)c2)c2c(=O)[nH]c(=O)n(C)c2n1`, for which the EC50 was 4.31 µM. As to `N#Cc1c(-c2c(Cl)cccc2Cl)noc1/C=C/Nc1ccc(C(=O)O)cc1`, the EC50 was 4.6 µM. For `CCOc1ccc(/C=N/NC(=O)Cc2csc(Nc3cccc(C(F)(F)F)c3)n2)cc1` the value was 6.35 µM. In the case of `O=C1N/C(=N\N=C\c2cccs2)SC1Cc1ccc(Cl)c(Cl)c1` (stereo not given), the EC50 is 11.4 µM.

In the case of `c1ccc2sc(SCSc3nc4ccccc4s3)nc2c1`, the EC50 is 2.86 µM. For the molecule `O=C(c1cc(-c2ccccc2)nc2ccccc12)N1CCN(c2ccccc2O)CC1`, the EC50 is 6.96 µM. For `CC(=O)N1CCc2cc(S(=O)(=O)N3CCc4ccccc43)ccc21`, the EC50 is > 15 µM (inactive). The same measure for `C=CCn1c(N)c(C(=O)Nc2cccc(C)c2)c2nc3ccccc3nc21`: 3.4 µM; for `O=C(Nc1nc(-c2ccccn2)cs1)c1ncc(Cl)c(Cl)c1Cl`: 0.771 µM; for `O=c1cc(-c2ccccc2Cl)oc2c(NS(=O)(=O)c3cc(Cl)cc(Cl)c3O)ccc(O)c12`: 0.552 µM. `CCOC(=O)c1cnc(-n2nc(C)cc2C)nc1NNc1cc(C)nc(-c2ccccc2)n1`: the EC50 was 0.237 µM. For `CCC(C)Nc1nc(N)c([N+](=O)[O-])c(Nc2cc(OC)ccc2OC)n1` (stereo not given) the value was 1.95 µM. Take `S=c1[nH]nc(-c2cc3c(s2)-c2ccccc2CC3)o1`: the 50% effective concentration (EC50) was 3.87 µM. `Nc1nc(N)c(C=Nc2ccc(Br)cc2)c(Nc2ccc(Br)cc2)n1`: the EC50 is 1.69 µM. For `Cc1nc(N)nc(N)c1CCCc1ccc(Cl)c(Cl)c1`, the EC50 was 0.87 µM. On to `O=C(Nc1nnc(SCc2ccccc2Cl)s1)C1COc2ccccc2O1` (stereo not given), for which the EC50 is 7.21 µM. `Cn1ncc2c(Nc3cccc(Cl)c3)nc(Nc3cccc(Cl)c3)nc21`: the EC50 was 2.67 µM. As to `Cc1ccc(-n2sc3ccccc3c2=O)cc1`, the EC50 is 1.27 µM. For `CC(=O)Oc1c(I)cc(I)cc1C(=O)Nc1ccc(Cl)cc1` the value was 0.394 µM. `O=C(/C=C/c1ccccc1)NC(NC(=S)Nc1cc(Cl)ccc1Cl)C(Cl)(Cl)Cl` (stereo not given): the EC50 is 0.55 µM. The same measure for `N#C/C(=C(/O)Cc1cccc2ccccc12)c1nc2ccccc2s1`: 1.36 µM; for `CC(C)(C)c1ccc(CN(Cc2ccco2)Cc2nnnn2C2CCCC2)cc1`: 4.69 µM. `CCOC(=O)C1CCN(C(=O)c2ccc3c(=O)n4nc(Nc5cc(C)ccc5C)sc4nc3c2)CC1`: the EC50 was 8.2 µM. For `O=C(COc1ccccc1)NC1C(=O)N2C(C(=O)O)=C(Cl)CSC12` (stereo not given) the value was 0.128 µM.

For `Oc1cc2ccccc2cc1-c1n[nH]c(=S)o1`, the EC50 is 11.1 µM. The same measure for `CCN1CCN(C(c2ccc(C(F)(F)F)cc2)c2ccc3cccnc3c2O)CC1` (stereo not given): 1.82 µM; for `COc1ccc(-c2cc3ncnc(Cl)c3s2)cc1`: 7.15 µM; for `Cc1onc(-c2ccccc2)c1C(=O)NC(=S)NNC(=O)c1ccco1`: 0.943 µM. For `Oc1ccccc1/C=N/Nc1nc2ccccc2o1` the value was 2.42 µM. Regarding `CC(C)C[C@H](NC(=O)c1[nH]cnc1C(=O)N[C@@H](C)C(=O)OC(C)(C)C)C(=O)OCc1ccccc1`, the EC50 is 7.06 µM.

With `CCCCCCCCCCCCCCCC[N+](C)(C)C`, the EC50 was 3.02 µM. On to `CC(C)(C)c1ccc(C(=O)NNC(=S)NC(=O)c2cccnc2)cc1`, for which the EC50 was 0.249 µM. The same measure for `CCc1ccc2[nH]c(O)c(N=Nc3nc(-c4ccccc4)cs3)c2c1`: 8.8 µM; for `O=C(Oc1cccc2c(O)cccc12)c1ccccc1`: > 15 µM (inactive); for `Cc1nc2ccccc2c(=O)n1/N=C/c1ccc2ccccc2c1O`: > 15 µM (inactive).

For `CCC(CC)c1nnc(NC(=O)c2ccc3ccccc3n2)s1`, the EC50 is 0.72 µM.

Take `CC(C)(C)c1cc(NCc2ccccn2)n2ncc(-c3ccc(Cl)cc3)c2n1`: the EC50 is 1.34 µM. Regarding `O=C(NC(NC(=S)Nc1c(Cl)cccc1Cl)C(Cl)(Cl)Cl)OCc1ccccc1` (stereo not given), the EC50 is 2.5 µM. Consider `COc1cc(OC)cc(C(=O)Nc2nc(CC(=O)NCc3ccccc3OC)cs2)c1`, for which the 50% effective concentration (EC50) was 12.4 µM.

Consider `CCCC(NC(=S)NCC1CCCO1)C12CC3CC(CC(C3)C1)C2` (stereo not given), for which the EC50 was 5.79 µM. For `O=C(/C=C/c1ccccc1)NC(=S)NNC(=O)c1ccco1`, the EC50 is 2.76 µM.

Consider `OC1(C#Cc2c(-c3ccsc3)oc3ccc(N4CCOCC4)cc23)CCCCC1`, for which the 50% effective concentration (EC50) was 3.59 µM.

Turning to `COc1ccc(Cn2c(-c3ccco3)nc3oc4cc(OC)ccc4c(=O)c3c2=O)cc1`, the EC50 is 14.7 µM. Consider `Cc1ccccc1N1CCN(C(=O)CCN2C(=O)c3ccccc3C2=O)CC1`, for which the EC50 was > 15 µM (inactive). As for `O=C(CN(C(=O)Cn1nnc(-c2ccccc2F)n1)c1cccc2c1CCCC2)NCc1ccccc1`, the EC50 was 5.32 µM. `CS(=O)(=O)c1ccc2nc(NC(=O)c3ccc(NS(=O)(=O)c4cccc([N+](=O)[O-])c4)cc3)sc2c1`: the EC50 was 1.64 µM. Consider `COc1ccc(NC(=O)c2cc3cccc(OC)c3oc2=Nc2ccc(C(=O)O)cc2)cc1OC`, for which the EC50 is 2.1 µM.

Take `Cc1cc(C)c2nc(N3C(=O)C(O)=C(C(=O)c4ccco4)C3c3ccco3)sc2c1` (stereo not given): the EC50 is 2.12 µM. For `Cc1c(N/N=C(\C#N)C(=O)c2ccc(Cl)cc2)c(=O)n(-c2ccccc2)n1C`, the EC50 is 0.36 µM. Turning to `Cc1cc(Br)c(OCc2ccc(C(=O)N/N=C3\CC4CC=CC34)cc2)c(Br)c1` (stereo not given), the EC50 was 4 µM.

Turning to `O=C(CCC(=O)Nc1ccc(Br)cc1)N/N=C/c1ccccc1O`, the EC50 was 5.07 µM. As for `Cc1ccc2c(c1)=C(c1sc(N(C)c3ccc(O)cc3)nc1O)C(=O)N=2`, the EC50 was 6.72 µM. For `CCCc1cc(=O)n2[nH]cc(-c3ccc(Cl)cc3)c2n1`, the EC50 was 1.78 µM. As for `O=c1oc2ccccc2c(O)c1C(c1ccc([N+](=O)[O-])cc1)c1c(O)c2ccccc2oc1=O`, the EC50 was 6.3 µM. For `Cc1ccc(SCc2cc(=O)[nH]c(SCC(=O)Nc3cc(Cl)ccc3Cl)n2)cc1` the value was 6.79 µM; for `CCOC(=O)/C(=N\Nc1ccc(Cl)cc1)c1csc(Nc2ccccc2)n1`, 1.77 µM. The same measure for `COc1ccccc1OCCCn1c(C)c(C#N)c2ccccc21`: 7.08 µM; for `O=C(O)CCCN1C(=O)/C(=C\c2ccc(-c3nc4ccccc4s3)o2)SC1=S`: 4.89 µM; for `Oc1c(Br)cc(Br)cc1CNc1cccc2cccnc12`: 4.47 µM. For `Nc1c(Cl)cc(C2=NCCn3c2c2ccc([N+](=O)[O-])cc2[n+]3[O-])cc1Cl` the value was 2.44 µM. Consider `COc1ccc(C(=O)c2c(C(F)(F)F)oc3c2C(=O)c2ccccc2C3=O)cc1`, for which the EC50 was 1.99 µM. Turning to `Cc1[nH]c2ccccc2c1C(c1ccccn1)c1c(C)[nH]c2ccccc12`, the EC50 was 8.63 µM. For the molecule `Cc1c2ccncc2c(C)c2c1[nH]c1ccccc12`, the EC50 was 3.02 µM.

Take `CC(C)OC(=O)c1c2nc3ccccc3nc2n2c1[nH]c(=O)c1ccccc12`: the EC50 is 0.91 µM. For `C[C@H]1COC2=C1C(=O)C(=O)c1c2ccc2c1CCCC2(C)C` the value was 3.95 µM; for `c1ccc(-c2cc(-c3ccncc3)nc3ccc4ccccc4c23)cc1`, 2.21 µM. For `CCCOc1ccc(/C=C/c2c([N+](=O)[O-])c(=O)n(C)c(=O)n2C)cc1` the value was 7.11 µM; for `Cc1cc(N2C(=O)C(O)=C(C(=O)c3cc4ccccc4o3)C2c2cccc(Cl)c2)no1` (stereo not given), 1.33 µM; for `CCC1(C)Cc2ccccc2-c2c1c(=O)n(Cc1ccccc1)c1nnnn21` (stereo not given), 1.51 µM. Consider `CCN(c1ccccc1)S(=O)(=O)c1ccc(C(=O)Nc2nnc(-c3ccco3)o2)cc1`, for which the EC50 was 2.04 µM. Turning to `COc1ccc(-c2[nH]ncc2N=Nc2cc(C)cc(C)c2)cc1`, the EC50 was 4.27 µM.

As for `Cc1cc(C)c(C(=O)Nc2ccc(Br)c(C(F)(F)F)c2)c(C)c1`, the EC50 is 2.79 µM. For `N#CC1=C(N)OC2=C(CCc3ccccc32)C1c1ccccc1Cl` (stereo not given) the value was 3.82 µM; for `CCc1ccc(NC2=NCC(c3ccccc3)S2)cc1` (stereo not given), 6.4 µM.

`CCCN(Cc1ccco1)S(=O)(=O)c1ccc(OC)c(OC)c1`: the EC50 is > 15 µM (inactive). With `COc1ccc(/C=N/n2c(C)nc3c([nH]c4ccccc43)c2=O)cc1CN1CCCC(C)(C)C1`, the EC50 is 7.93 µM. With `CC1CCN(Cc2c(C(=O)N/N=C/c3cc(Cl)ccc3O)nnn2-c2nonc2N)CC1`, the 50% effective concentration (EC50) is 2.67 µM. Regarding `O=C(Nc1ccc(Cl)c(Cl)c1)Nc1nccs1`, the concentration for a half-maximal effect (EC50) was 8.79 µM. As to `CCOC(=O)c1nnn(-c2nonc2-n2cccc2)c1CN1CCC(C)CC1`, the concentration giving a half-maximal response (EC50) is 8.02 µM. As for `Cc1ccc(C(=O)Nc2nnc(S(=O)(=O)N3CCN(c4ccc(F)cc4)CC3)s2)cc1`, the EC50 was > 15 µM (inactive). In the case of `COc1cccc(/C=N/Nc2ccc([N+](=O)[O-])cn2)c1O`, the EC50 was 0.637 µM.

Consider `COc1cccc(/C=N/Nc2nc(Nc3ccccc3)nc(-n3nc(C)cc3C)n2)c1O`, for which the EC50 was 1.97 µM. For `Cc1ccc(-c2nn(-c3ccccc3)cc2/C=N/O)cc1` the value was 6.28 µM.

For `O=C(Nc1nnc(-c2ccncc2)o1)c1ccc(Br)s1`, the EC50 is 3.27 µM. The same measure for `Cc1nnc(SCC2=C(C(=O)O)N3C(=O)C(NC(=O)c4cccc(F)c4F)C3SC2)s1` (stereo not given): 0.269 µM. The same measure for `C/C(=N\NC(=O)c1cc2ccccc2cc1O)c1cccs1`: 12.5 µM.

The record behind these values is PubChem BioAssay AID1902 (Broad Institute, 2009).
